{"source": "paper PMC4767605", "about": "(Cancer chemotherapy and pharmacology, 2016)", "test": "Phase I study: plasma pharmacokinetics of ASP9853 and docetaxel", "assay_type": "in vivo, human", "conditions": "compared with reported docetaxel alone [29]"}
{"compound": "CC(=O)O[C@@]12CO[C@@H]1C[C@H](O)[C@@]1(C)C(=O)[C@H](O)C3=C(C)[C@@H](OC(=O)[C@H](O)[C@@H](NC(=O)OC(C)(C)C)c4ccccc4)C[C@@](O)([C@@H](OC(=O)c4ccccc4)[C@H]21)C3(C)C", "note": "[docetaxel, reference compound]", "values": [{"measurement": "Docetaxel PK in combination with ASP9853", "result": "appeared similar to that reported for docetaxel alone"}]}
